Values quoted from earlier work as cited in patent US6462026B1, “Bicyclic leucomycins” (Enanta Pharmaceuticals, Inc., priority 2001, dated 2002).
Like-named read-outs stand apart in the source and are kept apart here.

Tests used:
[1] = parent compound rokitamycin
[2] = metabolites isolated from urine and plasma of adults given oral josamycin
[3] = tested on: Gram-positive bacteria
[4] = tested on: Mycoplasma spp.
[5] = tested on: Gram-negative bacteria; conditions: relative to leucomycin A5, josamycin and midecamycin
[6] = dogs; compared with other 3″-O-acyl derivatives of leucomycin A5
[7] = monkeys; compared with other 3″-O-acyl derivatives of leucomycin A5

For “4″-debutyryl leucomycin A5 [Lecomycin V]”, the “in vitro potency relative to the parent compound” value [1] is listed as “one-tenth”.
In the case of demycarosyl josamycin, the antimicrobial activity [2] is listed as “inactive”.
For CCC(=O)O[C@H]1[C@H](C)O[C@@H](O[C@H]2[C@H](N(C)C)[C@@H](O)[C@H](O[C@H]3[C@@H](CC=O)C[C@@H](C)[C@@H](O)/C=C/C=C/C[C@@H](C)OC(=O)C[C@@H](O)[C@@H]3OC)O[C@@H]2C)C[C@@]1(C)O [Leucomycin A7], the “in vitro potency relative to the parent compound” value [1] is given as “one-half”.
For 5-hydroxyjosamycin, the antimicrobial activity [2] is given as “poor antimicrobial activity”.
In the case of COC1C(O)CC(=O)OC(C)CC=CC=CC(=O)C(C)CC(CC=O)C1OC1OC(C)C(OC2CC(C)(O)C(OC(=O)CC(C)C)C(C)O2)C(N(C)C)C1O (centres unmarked) [Niddamycin], the “antibacterial activity in vitro” value [3] is listed as “good antibacterial activity” and the “antibacterial activity in vitro” value [4] is listed as “good antibacterial activity”.
For β-hydroxyisovaleryl josamycin, the antimicrobial activity [2] is given as “poor antimicrobial activity”.
In the case of COC1C(OC(C)=O)CC(=O)OC(C)CC=CC=CC(O)C(C)CC(CC=O)C1OC1OC(C)C(OC2CC(C)(O)C(O)C(C)O2)C(N(C)C)C1O (centres unmarked) [desisovaleryl josamycin], the antimicrobial activity [2] is given as “inactive”.
For CCCC(=O)O[C@H]1[C@H](C)O[C@@H](O[C@H]2[C@H](N(C)C)[C@@H](O)[C@H](O[C@H]3[C@@H](CC=O)C[C@@H](C)[C@@H](O)/C=C/C=C/C[C@@H](C)OC(=O)C[C@@H](O)[C@@H]3OC)O[C@@H]2C)C[C@@]1(C)OC(=O)CC [rokitamycin, 3″-O-propionyl leucomycin A5], the “in vitro activity against Gram-negative bacteria” value [5] is given as “twice as high”, the serum levels [6] is given as “highest serum levels” and the serum levels [7] is given as “highest serum levels”.
